Data from ChEMBL document CHEMBL5523747, “Discovery of a Series of Orally Bioavailable Androgen Receptor Degraders for the Treatment of Prostate Cancer” (J Med Chem, 2024).

Molecular target: T1, Protein cereblon/Androgen receptor (Homo sapiens, UniProt P10275+Q96SW2)
Assay: PROTAC activity at AR/CRBN in human LNCaP cells assessed as protein degradation measured after 24 hrs incubation by imaging IF assay
Type: cell-based
Conditions: not given
Target sequence in this assay (P10275 whole entry): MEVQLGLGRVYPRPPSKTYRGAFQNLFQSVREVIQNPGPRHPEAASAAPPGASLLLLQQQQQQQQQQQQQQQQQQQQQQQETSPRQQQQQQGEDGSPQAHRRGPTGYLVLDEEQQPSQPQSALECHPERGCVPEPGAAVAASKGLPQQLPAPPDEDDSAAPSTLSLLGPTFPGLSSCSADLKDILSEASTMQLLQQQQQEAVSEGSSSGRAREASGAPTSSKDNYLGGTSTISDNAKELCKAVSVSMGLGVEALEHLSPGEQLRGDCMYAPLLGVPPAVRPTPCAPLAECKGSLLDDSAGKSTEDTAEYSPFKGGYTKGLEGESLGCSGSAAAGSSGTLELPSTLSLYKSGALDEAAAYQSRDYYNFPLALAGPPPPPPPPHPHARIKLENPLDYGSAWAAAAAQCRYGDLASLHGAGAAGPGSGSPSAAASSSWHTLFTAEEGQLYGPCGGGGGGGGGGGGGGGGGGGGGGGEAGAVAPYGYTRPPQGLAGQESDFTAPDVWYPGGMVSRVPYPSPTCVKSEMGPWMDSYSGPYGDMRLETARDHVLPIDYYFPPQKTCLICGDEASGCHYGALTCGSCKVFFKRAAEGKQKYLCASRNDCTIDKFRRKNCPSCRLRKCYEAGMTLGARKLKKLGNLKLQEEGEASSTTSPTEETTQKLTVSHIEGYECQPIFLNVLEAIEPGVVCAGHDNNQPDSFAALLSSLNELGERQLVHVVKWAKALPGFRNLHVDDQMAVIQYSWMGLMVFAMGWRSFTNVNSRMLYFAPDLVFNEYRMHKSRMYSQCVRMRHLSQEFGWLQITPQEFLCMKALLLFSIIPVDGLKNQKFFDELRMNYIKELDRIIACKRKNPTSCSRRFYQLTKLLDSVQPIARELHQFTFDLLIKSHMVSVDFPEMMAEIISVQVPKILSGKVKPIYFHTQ
Target sequence in this assay (Q96SW2 whole entry): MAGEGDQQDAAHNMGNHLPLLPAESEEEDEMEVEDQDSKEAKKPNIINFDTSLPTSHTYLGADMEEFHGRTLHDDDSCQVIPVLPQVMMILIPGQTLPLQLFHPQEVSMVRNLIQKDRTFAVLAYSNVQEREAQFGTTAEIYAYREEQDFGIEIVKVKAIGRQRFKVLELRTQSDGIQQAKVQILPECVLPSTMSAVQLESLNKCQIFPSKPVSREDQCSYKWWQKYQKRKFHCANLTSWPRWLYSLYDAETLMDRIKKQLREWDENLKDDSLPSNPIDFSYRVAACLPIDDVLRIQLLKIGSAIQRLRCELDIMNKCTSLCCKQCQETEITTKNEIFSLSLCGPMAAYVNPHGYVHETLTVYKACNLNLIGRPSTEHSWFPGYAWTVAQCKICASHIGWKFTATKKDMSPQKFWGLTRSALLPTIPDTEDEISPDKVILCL

In order of falling DC50:
1. N#Cc1ccc(N2CCC(c3ccc(N4CCC(CN5CCN(c6cc7c(cc6F)C(=O)N(C6CCC(=O)NC6=O)C7)CC5)CC4)cc3)CC2)cc1C(F)(F)F (stereo not given)  180 nM
2. N#Cc1ccc(N2CCC(c3ccc(N4CCC(CN5CCN(c6ccc7c(c6)C(=O)N(C6CCC(=O)NC6=O)C7=O)CC5)CC4)cc3)CC2)c(F)c1C(F)(F)F (stereo not given)  170 nM
3. N#Cc1ccc(N2CCC(c3ccc(N4CCC(CN5CCN(c6ccc7c(c6)CN(C6CCC(=O)NC6=O)C7=O)CC5)CC4)cc3)CC2)c(F)c1C(F)(F)F (stereo not given)  23 nM
4. N#Cc1ccc(N2CCC(c3ccc(OCCCCN4CCN(c5ccc6c(c5)CN(C5CCC(=O)NC5=O)C6=O)CC4)cc3)CC2)c(F)c1C(F)(F)F (stereo not given)  9 nM
5. N#Cc1ccc(N2CCC(c3ccc(OCCCCN4CCN(c5ccc6c(c5)CN(C5CCC(=O)NC5=O)C6=O)CC4)cc3)CC2)cc1C(F)(F)F (stereo not given)  7 nM

Molecular target: T1, Protein cereblon/Androgen receptor
Assay: PROTAC activity at AR/CRBN in human LNCaP cells assessed as maximal protein degradation measured after 24 hrs incubation by imaging IF assay relative to control
Type: cell-based
Conditions: not given
Target sequence in this assay (P10275 whole entry, looked up): as the sequence (P10275 whole entry) above
Target sequence in this assay (Q96SW2 whole entry, looked up): as the sequence (Q96SW2 whole entry) above

In order of falling Emax:
1. N#Cc1ccc(N2CCC(c3ccc(OCCCCN4CCN(c5ccc6c(c5)CN(C5CCC(=O)NC5=O)C6=O)CC4)cc3)CC2)c(F)c1C(F)(F)F (stereo not given)  100%
2. N#Cc1ccc(N2CCC(c3ccc(N4CCC(CN5CCN(c6ccc7c(c6)C(=O)N(C6CCC(=O)NC6=O)C7=O)CC5)CC4)cc3)CC2)c(F)c1C(F)(F)F (stereo not given)  100%
3. N#Cc1ccc(N2CCC(c3ccc(OCCCCN4CCN(c5ccc6c(c5)CN(C5CCC(=O)NC5=O)C6=O)CC4)cc3)CC2)cc1C(F)(F)F (stereo not given)  97%
4. N#Cc1ccc(N2CCC(c3ccc(N4CCC(CN5CCN(c6ccc7c(c6)CN(C6CCC(=O)NC6=O)C7=O)CC5)CC4)cc3)CC2)c(F)c1C(F)(F)F (stereo not given)  95%
5. N#Cc1ccc(N2CCC(c3ccc(N4CCC(CN5CCN(c6cc7c(cc6F)C(=O)N(C6CCC(=O)NC6=O)C7)CC5)CC4)cc3)CC2)cc1C(F)(F)F (stereo not given)  92%

Test system: not listed separately
Assay: Metabolic stability in human liver microsomes assessed as intrinsic clearance
Type: ADME, Microsome
Conditions: read-out: CLH

Going from `N#Cc1ccc(N2CCC(c3ccc(N4CCC(CN5CCN(c6cc7c(cc6F)C(=O)N(C6CCC(=O)NC6=O)C7)CC5)CC4)cc3)CC2)cc1C(F)(F)F` (stereo not given) to `N#Cc1ccc(N2CCC(c3ccc(OCCCCN4CCN(c5ccc6c(c5)CN(C5CCC(=O)NC5=O)C6=O)CC4)cc3)CC2)cc1C(F)(F)F` (stereo not given), the microsomal CLint rises from under 3 µL/min/mg to 10 µL/min/mg.

Test system: not listed separately
Assay: Volume of distribution at steady state in CD-1 mouse at 1 mg/kg, po and 0.5 mg/kg, iv bolus
Type: ADME, organism-based
Conditions: in vivo

For `N#Cc1ccc(N2CCC(c3ccc(OCCCCN4CCN(c5ccc6c(c5)CN(C5CCC(=O)NC5=O)C6=O)CC4)cc3)CC2)cc1C(F)(F)F` (stereo not given), the Vdss was 5.2 L/kg.

Test system: not listed separately
Assay: Half life in CD-1 mouse at 1 mg/kg, po and 0.5 mg/kg, iv bolus
Type: ADME, organism-based
Conditions: in vivo

Compound `N#Cc1ccc(N2CCC(c3ccc(OCCCCN4CCN(c5ccc6c(c5)CN(C5CCC(=O)NC5=O)C6=O)CC4)cc3)CC2)cc1C(F)(F)F` (stereo not given) has a half-life of 5 h.

Test system: not listed separately
Assay: Volume of distribution at steady state in Han Wistar rat at 1 mg/kg, po and 0.5 mg/kg, iv bolus
Type: ADME, organism-based
Conditions: in vivo

Compound `N#Cc1ccc(N2CCC(c3ccc(OCCCCN4CCN(c5ccc6c(c5)CN(C5CCC(=O)NC5=O)C6=O)CC4)cc3)CC2)cc1C(F)(F)F` (stereo not given) has a Vdss of 6.2 L/kg.

Test system: not listed separately
Assay: Half life in Han Wistar rat at 1 mg/kg, po and 0.5 mg/kg, iv bolus
Type: ADME, organism-based
Conditions: in vivo

Work on `N#Cc1ccc(N2CCC(c3ccc(OCCCCN4CCN(c5ccc6c(c5)CN(C5CCC(=O)NC5=O)C6=O)CC4)cc3)CC2)cc1C(F)(F)F` (stereo not given) yielded a half-life of 6.6 h.

Test system: not listed separately
Assay: Oral bioavailability in Han Wistar rat at 1 mg/kg
Type: ADME, organism-based
Conditions: in vivo

In the case of `N#Cc1ccc(N2CCC(c3ccc(OCCCCN4CCN(c5ccc6c(c5)CN(C5CCC(=O)NC5=O)C6=O)CC4)cc3)CC2)cc1C(F)(F)F` (stereo not given), the bioavailability was 20%.

Test system: not listed separately
Assay: Volume of distribution at steady state in Beagle dog at 1 mg/kg, po and 0.5 mg/kg, iv infusion over 0.25 hrs
Type: ADME, organism-based, Canis lupus familiaris
Conditions: in vivo

For `N#Cc1ccc(N2CCC(c3ccc(OCCCCN4CCN(c5ccc6c(c5)CN(C5CCC(=O)NC5=O)C6=O)CC4)cc3)CC2)cc1C(F)(F)F` (stereo not given), the Vdss was 7.1 L/kg.

Test system: not listed separately
Assay: Half life in Beagle dog at 1 mg/kg, po and 0.5 mg/kg, iv infusion over 0.25 hrs
Type: ADME, organism-based, Canis lupus familiaris
Conditions: in vivo

`N#Cc1ccc(N2CCC(c3ccc(OCCCCN4CCN(c5ccc6c(c5)CN(C5CCC(=O)NC5=O)C6=O)CC4)cc3)CC2)cc1C(F)(F)F` (stereo not given) gave a half-life of 53.5 h.

Test system: not listed separately
Assay: Oral bioavailability in Beagle dog at 1 mg/kg
Type: ADME, organism-based, Canis lupus familiaris
Conditions: in vivo

Compound `N#Cc1ccc(N2CCC(c3ccc(OCCCCN4CCN(c5ccc6c(c5)CN(C5CCC(=O)NC5=O)C6=O)CC4)cc3)CC2)cc1C(F)(F)F` (stereo not given) has a bioavailability of 8%.

Molecular target: Protein cereblon/Androgen receptor (Homo sapiens, UniProt P10275+Q96SW2, L702H)
Sequence (P10275 whole entry L702H, stated change not applied): as the sequence (P10275 whole entry) above, with L702H counted along it
Sequence (Q96SW2 whole entry, stated change not applied): as the sequence (Q96SW2 whole entry) above
Assay: PROTAC activity at CRBN/AR L702H mutant (unknown origin) expressed in human LNCaP cells assessed as protein degradation measured after 24 hrs incubation by imaging IF assay
Type: cell-based
Conditions: not given

Going from `N#Cc1ccc(N2CCC(c3ccc(OCCCCN4CCN(c5ccc6c(c5)CN(C5CCC(=O)NC5=O)C6=O)CC4)cc3)CC2)c(F)c1C(F)(F)F` (stereo not given) to `N#Cc1ccc(N2CCC(c3ccc(OCCCCN4CCN(c5ccc6c(c5)CN(C5CCC(=O)NC5=O)C6=O)CC4)cc3)CC2)cc1C(F)(F)F` (stereo not given), the DC50 rises from 107 nM to over 3000 nM.

Compared with `N#Cc1ccc(N2CCC(c3ccc(N4CCC(CN5CCN(c6ccc7c(c6)C(=O)N(C6CCC(=O)NC6=O)C7=O)CC5)CC4)cc3)CC2)c(F)c1C(F)(F)F` (stereo not given), `N#Cc1ccc(N2CCC(c3ccc(N4CCC(CN5CCN(c6ccc7c(c6)CN(C6CCC(=O)NC6=O)C7=O)CC5)CC4)cc3)CC2)c(F)c1C(F)(F)F` (stereo not given) is 17-fold lower in DC50: 1330 nM for the first, 77 nM for the second.

Test system: Protein cereblon/Androgen receptor (Homo sapiens), P10275+Q96SW2 [L702H]
Assay: PROTAC activity at CRBN/AR L702H mutant (unknown origin) expressed in human LNCaP cells assessed as maximal protein degradation measured after 24 hrs incubation by imaging IF assay relative to control
Type: cell-based
Conditions: not given

In order of rising Emax:
1. N#Cc1ccc(N2CCC(c3ccc(OCCCCN4CCN(c5ccc6c(c5)CN(C5CCC(=O)NC5=O)C6=O)CC4)cc3)CC2)c(F)c1C(F)(F)F (stereo not given)  78%
2. N#Cc1ccc(N2CCC(c3ccc(N4CCC(CN5CCN(c6ccc7c(c6)C(=O)N(C6CCC(=O)NC6=O)C7=O)CC5)CC4)cc3)CC2)c(F)c1C(F)(F)F (stereo not given)  100%

Test system: not listed separately
Assay: Volume of distribution at steady state in CD-1 mouse at 1 mg/kg, po and 0.5 mg/kg, iv
Type: ADME, organism-based
Conditions: in vivo

In order of rising Vdss:
1. N#Cc1ccc(N2CCC(c3ccc(N4CCC(CN5CCN(c6ccc7c(c6)CN(C6CCC(=O)NC6=O)C7=O)CC5)CC4)cc3)CC2)c(F)c1C(F)(F)F (stereo not given)  2 L/kg
2. N#Cc1ccc(N2CCC(c3ccc(OCCCCN4CCN(c5ccc6c(c5)CN(C5CCC(=O)NC5=O)C6=O)CC4)cc3)CC2)c(F)c1C(F)(F)F (stereo not given)  3.4 L/kg
3. N#Cc1ccc(N2CCC(c3ccc(OCCCCN4CCN(c5ccc6c(c5)CN(C5CCC(=O)NC5=O)C6=O)CC4)cc3)CC2)cc1C(F)(F)F (stereo not given)  5.2 L/kg
4. N#Cc1ccc(N2CCC(c3ccc(N4CCC(CN5CCN(c6ccc7c(c6)C(=O)N(C6CCC(=O)NC6=O)C7=O)CC5)CC4)cc3)CC2)c(F)c1C(F)(F)F (stereo not given)  6.2 L/kg

Test system: not listed separately
Assay: Half life in CD-1 mouse at 1 mg/kg, po and 0.5 mg/kg, iv
Type: ADME, organism-based
Conditions: in vivo

In order of falling half-life:
1. N#Cc1ccc(N2CCC(c3ccc(N4CCC(CN5CCN(c6ccc7c(c6)C(=O)N(C6CCC(=O)NC6=O)C7=O)CC5)CC4)cc3)CC2)c(F)c1C(F)(F)F (stereo not given)  32 h
2. N#Cc1ccc(N2CCC(c3ccc(N4CCC(CN5CCN(c6ccc7c(c6)CN(C6CCC(=O)NC6=O)C7=O)CC5)CC4)cc3)CC2)c(F)c1C(F)(F)F (stereo not given)  19.5 h
3. N#Cc1ccc(N2CCC(c3ccc(OCCCCN4CCN(c5ccc6c(c5)CN(C5CCC(=O)NC5=O)C6=O)CC4)cc3)CC2)c(F)c1C(F)(F)F (stereo not given)  7 h
4. N#Cc1ccc(N2CCC(c3ccc(OCCCCN4CCN(c5ccc6c(c5)CN(C5CCC(=O)NC5=O)C6=O)CC4)cc3)CC2)cc1C(F)(F)F (stereo not given)  5 h

Test system: not listed separately
Assay: Oral bioavailability in CD-1 mouse at 1 mg/kg
Type: ADME, organism-based
Conditions: in vivo

In order of rising bioavailability:
1. N#Cc1ccc(N2CCC(c3ccc(OCCCCN4CCN(c5ccc6c(c5)CN(C5CCC(=O)NC5=O)C6=O)CC4)cc3)CC2)c(F)c1C(F)(F)F (stereo not given)  30%
2. N#Cc1ccc(N2CCC(c3ccc(OCCCCN4CCN(c5ccc6c(c5)CN(C5CCC(=O)NC5=O)C6=O)CC4)cc3)CC2)cc1C(F)(F)F (stereo not given)  47%
3. N#Cc1ccc(N2CCC(c3ccc(N4CCC(CN5CCN(c6ccc7c(c6)CN(C6CCC(=O)NC6=O)C7=O)CC5)CC4)cc3)CC2)c(F)c1C(F)(F)F (stereo not given)  48%
4. N#Cc1ccc(N2CCC(c3ccc(N4CCC(CN5CCN(c6ccc7c(c6)C(=O)N(C6CCC(=O)NC6=O)C7=O)CC5)CC4)cc3)CC2)c(F)c1C(F)(F)F (stereo not given)  77%

Test system: not listed separately
Assay: Permeability of compound in human Caco-2 cells
Type: ADME, cell-based
Conditions: not given

`N#Cc1ccc(N2CCC(c3ccc(OCCCCN4CCN(c5ccc6c(c5)CN(C5CCC(=O)NC5=O)C6=O)CC4)cc3)CC2)cc1C(F)(F)F` (stereo not given) showed a Papp of under 0.05 ×10⁻⁶ cm/s.

Test system: not listed separately
Assay: Aqueous solubility of compound at pH 7.4 buffer
Type: physicochemical
Conditions: not given

In the case of `N#Cc1ccc(N2CCC(c3ccc(OCCCCN4CCN(c5ccc6c(c5)CN(C5CCC(=O)NC5=O)C6=O)CC4)cc3)CC2)cc1C(F)(F)F` (stereo not given), the solubility was under 2 µM.
